From patent US9999222B2, “Herbicidal combination comprising azines” (BASF SE, priority 2014, dated 2018)

What was measured:
Assay in all cases: Greenhouse test, post-emergence treatment
Details in all cases: application rate 0.5 kg/ha, scale 0 to 100
[1] = tested on: AMARE; assay type: in vivo, Amaranthus retroflexus
Excerpt: (§1) The culture containers used were plastic flowerpots containing loamy sand with approximately 3.0% of humus as the substrate. The seeds of the test plants were sown separately for each species.
(§2) For the post-emergence treatment, the test plants were first grown to a height of […], depending on the plant habit, and only then treated with the active ingredients which had been suspended or emulsified in water. For this purpose, the test plants were either sown directly and grown in the same containers, or they were first grown separately as seedlings and transplanted into the test containers a few days prior to treatment.
(§3) Depending on the species, the plants were kept at 10-25° C. or 20-35° C., respectively.
(§4) The test period extended over 2 to 4 weeks. During this time, the plants were tended, and their response to the individual treatments was evaluated.
(§5) Evaluation was carried out using a scale from 0 to 100. 100 means no emergence of the plants, or complete destruction of at least the aerial moieties, and 0 means no damage, or normal course of growth. A moderate herbicidal activity is given at values of at least 60, a good herbicidal activity is given at values of at least 70, and a very good herbicidal activity is given at values of at least 85.

[2] = tested on: ABUTH; assay type: in vivo, Abutilon theophrasti
Excerpt: as §1, §2, §3, §4, §5

[3] = tested on: ECHCG; assay type: in vivo, Echinocloa crus-galli
Excerpt: as §1, §2, §3, §4, §5

## CC(c1nc(N)nc(Nc2c(F)c(F)cc(F)c2F)n1)C1CC1 (stereo not drawn) [Example 5, 6-(1-cyclopropylethyl)-N4-(2,3,5,6-tetrafluorophenyl)-1,3,5-triazine-2,4-diamine]
[1]
  herbicidal activity: very good herbicidal activity (a very good herbicidal activity is given at values of at least 85)
[2]
  herbicidal activity: very good herbicidal activity (a very good herbicidal activity is given at values of at least 85)
[3]
  herbicidal activity: very good herbicidal activity (a very good herbicidal activity is given at values of at least 85)
